Results published in ChEMBL document CHEMBL1926501 (J Med Chem, 2011).

Key:
[1] = target: T1, Amine oxidase [flavin-containing] A (Rattus norvegicus, UniProt P21396); assay: Irreversible inhibition of rat liver mitochondrial MAO-A using 5-hydroxytryptamine as substrate at 6 nM preincubated for 30 mins measured after three consecutive centrifugation; details: 0.006 µM
T1 sequence (P21396 whole entry): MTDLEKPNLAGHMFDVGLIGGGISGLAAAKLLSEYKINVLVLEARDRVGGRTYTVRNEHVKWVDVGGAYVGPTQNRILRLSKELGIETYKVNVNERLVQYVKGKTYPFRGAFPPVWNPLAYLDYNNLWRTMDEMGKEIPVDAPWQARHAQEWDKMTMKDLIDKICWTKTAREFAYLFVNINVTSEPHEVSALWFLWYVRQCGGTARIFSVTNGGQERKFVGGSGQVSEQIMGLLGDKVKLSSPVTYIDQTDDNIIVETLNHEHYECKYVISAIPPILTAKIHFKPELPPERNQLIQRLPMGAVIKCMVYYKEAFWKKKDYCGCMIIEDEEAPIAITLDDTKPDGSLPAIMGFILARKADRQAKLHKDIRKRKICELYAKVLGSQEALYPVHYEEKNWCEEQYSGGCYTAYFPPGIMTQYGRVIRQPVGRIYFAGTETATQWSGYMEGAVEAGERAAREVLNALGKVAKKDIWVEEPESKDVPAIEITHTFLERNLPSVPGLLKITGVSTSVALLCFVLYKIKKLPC

[2] = target: T2, Acetylcholinesterase (Homo sapiens, UniProt P22303); assay: Inhibition of cerebral human recombinant AchE expressed in HEK293 cells using acetylthiocholine iodide as substrate preincubated for 10 mins measured after 15 mins of substrate addition by Ellman's method
T2 sequence (P22303 whole entry): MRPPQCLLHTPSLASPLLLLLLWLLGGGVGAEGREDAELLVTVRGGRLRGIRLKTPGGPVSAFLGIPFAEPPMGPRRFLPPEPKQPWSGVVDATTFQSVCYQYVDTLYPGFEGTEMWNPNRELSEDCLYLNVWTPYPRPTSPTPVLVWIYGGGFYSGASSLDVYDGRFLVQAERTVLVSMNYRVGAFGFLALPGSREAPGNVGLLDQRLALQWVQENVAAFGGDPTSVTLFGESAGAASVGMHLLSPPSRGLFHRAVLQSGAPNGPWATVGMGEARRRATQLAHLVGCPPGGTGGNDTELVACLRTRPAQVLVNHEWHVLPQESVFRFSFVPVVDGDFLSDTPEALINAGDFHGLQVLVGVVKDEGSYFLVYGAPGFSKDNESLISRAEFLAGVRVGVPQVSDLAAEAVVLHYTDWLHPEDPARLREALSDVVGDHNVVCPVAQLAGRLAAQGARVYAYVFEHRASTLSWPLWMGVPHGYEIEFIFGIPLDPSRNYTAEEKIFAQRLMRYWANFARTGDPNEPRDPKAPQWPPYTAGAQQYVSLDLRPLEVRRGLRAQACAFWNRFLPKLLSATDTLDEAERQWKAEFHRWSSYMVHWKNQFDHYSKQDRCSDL

[3] = target: Cholinesterase (Homo sapiens, UniProt P06276); assay: Inhibition of human serum BuchE using butyrylthiocholine iodide as substrate preincubated for 10 mins measured after 15 mins of substrate addition by Ellman's method
Chain of Cholinesterase (Homo sapiens, UniProt P06276) (P06276 whole entry): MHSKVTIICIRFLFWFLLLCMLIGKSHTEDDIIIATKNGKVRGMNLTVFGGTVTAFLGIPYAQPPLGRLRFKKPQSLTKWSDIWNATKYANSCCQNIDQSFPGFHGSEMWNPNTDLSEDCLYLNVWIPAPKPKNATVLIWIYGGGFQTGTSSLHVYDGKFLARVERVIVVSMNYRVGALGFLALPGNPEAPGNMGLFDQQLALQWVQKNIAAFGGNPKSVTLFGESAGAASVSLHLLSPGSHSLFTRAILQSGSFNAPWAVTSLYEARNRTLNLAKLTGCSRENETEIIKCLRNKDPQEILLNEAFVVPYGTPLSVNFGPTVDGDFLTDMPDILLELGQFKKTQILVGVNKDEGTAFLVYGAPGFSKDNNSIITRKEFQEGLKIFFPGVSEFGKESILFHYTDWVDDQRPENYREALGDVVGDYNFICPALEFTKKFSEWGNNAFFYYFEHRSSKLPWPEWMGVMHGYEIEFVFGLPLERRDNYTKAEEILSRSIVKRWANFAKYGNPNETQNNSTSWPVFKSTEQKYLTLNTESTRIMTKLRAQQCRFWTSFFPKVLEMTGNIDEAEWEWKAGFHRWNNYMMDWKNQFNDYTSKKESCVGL

[4] = target: T1, Amine oxidase [flavin-containing] A; assay: Irreversible inhibition of rat liver mitochondrial MAO-A using 5-hydroxytryptamine as substrate at 6 nM preincubated for 30 mins measured after three consecutive washes with buffer; details: 0.006 µM
[5] = target: T1, Amine oxidase [flavin-containing] A; assay: Time-dependent inhibition of rat liver mitochondrial MAO-A using 5-hydroxytryptamine at 6 nM by scintillation counting; details: 0.006 µM
[6] = target: T3, Amine oxidase [flavin-containing] B (Rattus norvegicus, UniProt P19643); assay: Reversible inhibition of rat liver mitochondrial MAO-B using phenylethylamine assessed as recovered enzyme activity at 45 nM preincubated for 30 mins measured after three consecutive washes with buffer; design: scale not given: the % may be the effect or the level left; details: read-out: Activity
T3 sequence (P19643 whole entry): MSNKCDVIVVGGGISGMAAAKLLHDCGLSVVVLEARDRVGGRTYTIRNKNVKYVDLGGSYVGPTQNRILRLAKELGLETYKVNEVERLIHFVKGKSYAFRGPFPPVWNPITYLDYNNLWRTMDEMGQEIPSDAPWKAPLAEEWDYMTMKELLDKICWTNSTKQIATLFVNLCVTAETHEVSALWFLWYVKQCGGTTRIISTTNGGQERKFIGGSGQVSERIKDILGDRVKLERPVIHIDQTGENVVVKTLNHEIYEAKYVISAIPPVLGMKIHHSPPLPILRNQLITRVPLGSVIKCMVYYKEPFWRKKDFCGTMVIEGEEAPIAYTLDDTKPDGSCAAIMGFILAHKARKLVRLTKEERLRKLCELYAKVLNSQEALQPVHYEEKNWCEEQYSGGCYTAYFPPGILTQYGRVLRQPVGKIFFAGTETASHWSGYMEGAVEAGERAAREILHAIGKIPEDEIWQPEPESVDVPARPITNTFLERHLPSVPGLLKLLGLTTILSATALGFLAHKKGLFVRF

[7] = target: T3, Amine oxidase [flavin-containing] B; assay: Time-dependent inhibition of rat liver mitochondrial MAO-B using phenylethylamine at 45 nM; details: 0.045 µM
[8] = target: T1, Amine oxidase [flavin-containing] A; assay: Irreversible inhibition of rat liver mitochondrial MAO-A using 5-hydroxytriptamine as substrate assessed as substrate consumption at 10 nM measured up to 420 mins; details: 7 h, 0.01 µM
[9] = target: T3, Amine oxidase [flavin-containing] B; assay: Irreversible inhibition of rat liver mitochondrial MAO-B using phenylethylamine as substrate assessed as substrate consumption at 100 nM measured up to 420 mins; details: 7 h, 0.1 µM
[10] = target: T3, Amine oxidase [flavin-containing] B; assay: Non-competitive inhibition of rat liver mitochondrial MAO-B using phenylethylamine as substrate by Line-Weaver Burk plot analysis
[11] = target: T1, Amine oxidase [flavin-containing] A; assay: Irreversible inhibition of rat liver mitochondrial MAO-A using 5-hydroxytriptamine as substrate assessed as substrate consumption at 10 nM preincubated for 30 mins measured up to 420 mins; details: 7 h, 0.01 µM
[12] = target: T3, Amine oxidase [flavin-containing] B; assay: Reversible inhibition of rat liver mitochondrial MAO-B using phenylethylamine as substrate assessed as substrate consumption at 100 nM preincubated for 30 mins measured up to 420 mins; details: 7 h, 0.1 µM
[13] = target: T2, Acetylcholinesterase; details: 100 uM
Description: Inhibition of human AChE-induced amyloid beta (1 to 40) aggregation at 100 uM measured every 10 mins for 10 hrs by thioflavin T-based fluorometric analysis

[14] = target: Acetylcholinesterase (Electrophorus electricus, UniProt O42275)
Chain of Acetylcholinesterase (Electrophorus electricus, UniProt O42275) (O42275 whole entry): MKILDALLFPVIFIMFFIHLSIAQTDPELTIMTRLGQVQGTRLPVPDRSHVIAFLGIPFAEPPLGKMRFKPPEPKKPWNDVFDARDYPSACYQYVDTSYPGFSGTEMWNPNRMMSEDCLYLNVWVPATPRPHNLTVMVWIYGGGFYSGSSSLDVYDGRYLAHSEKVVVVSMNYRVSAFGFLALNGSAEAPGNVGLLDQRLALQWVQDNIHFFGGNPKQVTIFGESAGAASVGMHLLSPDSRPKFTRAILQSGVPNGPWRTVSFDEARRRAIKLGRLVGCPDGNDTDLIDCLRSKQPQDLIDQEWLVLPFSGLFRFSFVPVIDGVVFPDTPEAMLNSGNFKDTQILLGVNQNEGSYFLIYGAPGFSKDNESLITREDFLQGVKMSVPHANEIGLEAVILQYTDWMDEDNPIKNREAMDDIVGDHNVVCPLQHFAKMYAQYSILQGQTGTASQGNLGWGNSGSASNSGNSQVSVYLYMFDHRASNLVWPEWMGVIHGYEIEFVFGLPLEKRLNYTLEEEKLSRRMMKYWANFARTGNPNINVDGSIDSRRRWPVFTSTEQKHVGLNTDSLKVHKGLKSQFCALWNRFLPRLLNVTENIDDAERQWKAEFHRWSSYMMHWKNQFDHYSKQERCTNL
Description: Inhibition of Electrophorus electricus AchE using acetylthiocholine iodide as substrate preincubated for 10 mins measured after 15 mins of substrate addition by Ellman's method

[15] = target: T1, Amine oxidase [flavin-containing] A
Description: Inhibition of rat liver mitochondrial MAO-A using [14C]-5-hydroxytryptamine after 30 mins by scintillation counting

[16] = target: T3, Amine oxidase [flavin-containing] B
Description: Inhibition of rat liver mitochondrial MAO-B using [14C]-phenylethylamine after 30 mins by scintillation counting

[17] = target: Cholinesterase (Equus caballus, UniProt P81908)
Chain of Cholinesterase (Equus caballus, UniProt P81908) (P81908 whole entry): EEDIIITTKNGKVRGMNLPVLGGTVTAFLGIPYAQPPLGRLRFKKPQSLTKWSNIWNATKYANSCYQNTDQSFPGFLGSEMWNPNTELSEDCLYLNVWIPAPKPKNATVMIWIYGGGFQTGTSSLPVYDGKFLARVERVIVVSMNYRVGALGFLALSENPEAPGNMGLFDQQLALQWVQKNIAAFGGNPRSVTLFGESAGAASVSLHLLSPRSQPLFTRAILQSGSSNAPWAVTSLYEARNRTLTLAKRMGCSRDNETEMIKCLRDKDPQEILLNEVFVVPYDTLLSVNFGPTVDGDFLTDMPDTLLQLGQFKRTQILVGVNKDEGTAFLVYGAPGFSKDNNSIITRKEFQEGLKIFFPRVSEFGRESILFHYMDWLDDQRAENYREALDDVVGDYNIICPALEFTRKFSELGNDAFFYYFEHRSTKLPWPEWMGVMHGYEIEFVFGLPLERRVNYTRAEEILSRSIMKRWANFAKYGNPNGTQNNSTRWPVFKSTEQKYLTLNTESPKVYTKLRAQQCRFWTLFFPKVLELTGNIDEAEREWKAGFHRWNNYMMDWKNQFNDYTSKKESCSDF
Description: Inhibition of equine serum BuchE using butyrylthiocholine iodide as substrate preincubated for 10 mins measured after 15 mins of substrate addition by Ellman's method

For `C#CCN(C)Cc1cc2cc(OCCCC3CCN(Cc4ccccc4)CC3)ccc2n1C`, the “inhibition (INH)” value [1] was “Active”, the IC50 [2] was 380 nM and the IC50 [3] was 1700 nM. The “inhibition (INH)” value [4] was “Active”, the TDI [5] was “Active” and the activity at 0.045 µM [6] was 80.5%. The TDI [7] was “Active”, the “inhibition (INH)” value [8] was “Active” and the “inhibition (INH)” value [9] was “Active”. For the same compound, the Ki [10] was 11 nM, the “inhibition (INH)” value [11] was “Active” and the “inhibition (INH)” value [12] was “Active”. It also gave an inhibition [13] of 32.4%.
`C#CCN(C)Cc1cc2cc(OCCCN3CCN(Cc4ccccc4)CC3)ccc2n1C` was tested, and the IC50 [14] was greater than 100000 nM, the IC50 [15] was 31 nM and the IC50 [16] was 1600 nM.
`C#CCN(C)Cc1cc2cc(OCCCCC3CCN(Cc4ccccc4)CC3)ccc2n1C` was tested, and the IC50 [15] was 10 nM and the IC50 [16] was 2700 nM.
`C#CCN(C)Cc1cc2cc(OCc3ccccc3)ccc2n1C` was tested, and the IC50 [14] was greater than 100000 nM and the IC50 [17] was greater than 100000 nM.
`C#CCN(C)Cc1cc2cc(OCCN3CCC(Cc4ccccc4)CC3)ccc2n1C` was tested, and the IC50 [14] was greater than 100000 nM, the IC50 [15] was 140 nM and the IC50 [16] was 1400 nM.
`C#CCN(C)Cc1cc2cc(OCCCN3CCC(Cc4ccccc4)CC3)ccc2n1C` was tested, and the IC50 [16] was 11000 nM.
